Laboratory results: patent US11178872B2 (dated 2021)

Compound	melting point [°C]
N#Cc1cc(C(=O)N2CCC(O)(c3ccc(Cl)cc3)CC2)c(C(F)F)nc1-c1ccc(C(F)(F)F)nc1	177 to 180
N#Cc1cc(C(=O)N2CCC(O)(c3ccccc3Cl)C2)c(C(F)F)nc1-c1ccc(C(F)(F)F)cc1 (centres unmarked)	191 to 195
Cn1cc(-c2nc(C(F)F)c(C(=O)N3CCC(O)(c4ccc(Cl)cc4)CC3)cc2C#N)cn1	220
CCCn1cc(-c2nc(C(F)F)c(C(=O)N3CCC(O)(c4ccc(Cl)cc4)CC3)cc2C#N)cn1	193 to 195
N#Cc1cc(C(=O)N2CCC(O)(c3ccc(Cl)cc3)CC2)c(C(F)F)nc1-c1ccc(C(F)(F)F)cc1	200
N#Cc1cc(C(=O)N2CCC(O)(c3ccc(Cl)cc3)CC2)c(C(F)F)nc1-c1ccnc(F)c1	150 to 155
N#Cc1cc(C(=O)N2CCC(O)(c3ccc(Cl)cc3)CC2)c(C(F)F)nc1-c1ccc(Cl)cn1	175 to 177

Results, then the compound that gave them:

melting point [°C]	Compound
181 to 184	N#Cc1cc(C(=O)N2CCC(c3noc(O)n3)C2)c(C(F)F)nc1-c1ccc(C(F)(F)F)cc1 (centres unmarked)
60 to 62	Cc1nc(C2CCN(C(=O)c3cc(C#N)c(-c4ccc(C(F)(F)F)cn4)nc3C)CC2)no1
228 to 230	CO[C@@]1(c2ccc(C)cc2)[C@@H]2CC[C@H]1CN(C(=O)c1cc(C#N)c(-c3ccc(C(F)(F)F)cc3)nc1C(F)F)C2
69 to 71	Cc1nc(C2CCN(C(=O)c3cc(C#N)c(-c4ccc(Cl)s4)nc3C)CC2)no1
